Source: patent US9393221B2, “Methods and compounds for reducing intracellular lipid storage” (THE GENERAL HOSPITAL CORPORATION, priority 2011, dated 2016)
Structures can show the parent of a compound that is named as a salt.
Throughout, for Z-score: test concentration or dose not given here.

Each compound was assayed on ATGL-KO iPSCs (assay: High throughput iPSC chemical screening, Oil Red O (ORO) lipid accumulation). Details: glycolytic switch compounds.
Assay type: cell-based, mouse
For `O=C1NCN(c2ccccc2)C12CCN(CCCC(c1ccc(F)cc1)c1ccc(F)cc1)CC2` [Fluspirilen, reference compound], the “Rank in normalized ORO score from screen” value was 40.
In the case of `Fc1ccc(C(OCCN2CCN(CCCc3ccccc3)CC2)c2ccc(F)cc2)cc1` [GBR 12909 dihydrochloride], the “Rank in normalized ORO score from screen” value is reported as 208.
In the case of `Cc1cc2c(C(C)C)c(O)c(O)c(C=O)c2c(O)c1-c1c(C)cc2c(C(C)C)c(O)c(O)c(C=O)c2c1O` [Gossypol], the “Rank in normalized ORO score from screen” value is reported as 8.

Same assay, conditions: normalized ORO level vs DMSO-treated cells; compound present during 7 days differentiation, 96-well; negative = decrease in lipid accumulation
Compound `CC1CCc2cc(F)cc3c(=O)c(C(=O)O)cn1c23` (stereo not drawn) [Flumequine] has a Z-score of −0.8648.
In the case of `Fc1ccc(C(c2ccc(F)cc2)N2CCN(C/C=C/c3ccccc3)CC2)cc1` [Flunarizine dihydrochloride], the Z-score is reported as 0.2207.
In the case of `CC1(C)O[C@@H]2C[C@H]3[C@@H]4C[C@H](F)C5=CC(=O)C=C[C@]5(C)[C@H]4[C@@H](O)C[C@]3(C)[C@]2(C(=O)CO)O1` [Flunisolide], the Z-score is reported as 0.2241.
Compound `Cc1c(Nc2ncccc2C(=O)O)cccc1C(F)(F)F` [Flunixin meglumine] has a Z-score of −1.0122.
For `CC(=O)OCC(=O)[C@@]12OC(C)(C)O[C@@H]1C[C@H]1[C@@H]3C[C@H](F)C4=CC(=O)C=C[C@]4(C)[C@@]3(F)[C@@H](O)C[C@@]12C` [Fluocinonide], the Z-score was 0.3846.
Work on `C/C=C1/C[N@+]2(C)CC[C@]34C(=C(C=O)[C@H]1C[C@@H]32)Nc1ccccc14.[Cl-]` [Fluorocurarine chloride] yielded a Z-score of −1.1648.
With `CC(=O)[C@@]1(O)CC[C@H]2[C@@H]3C[C@H](C)C4=CC(=O)C=C[C@]4(C)[C@@]3(F)[C@@H](O)C[C@@]21C` [Fluorometholone] the Z-score was 0.1317.
`CNCCC(Oc1ccc(C(F)(F)F)cc1)c1ccccc1` (stereo not drawn) [Fluoxetine hydrochloride] was tested, and the Z-score was −1.0533.
Work on `Cl.Cl.OCCN1CCN(CC/C=C2/c3ccccc3Sc3ccc(C(F)(F)F)cc32)CC1` [Flupentixol dihydrochloride cis-(Z)] yielded a Z-score of −0.5309.
`OCCN1CCN(CCCN2c3ccccc3Sc3ccc(C(F)(F)F)cc32)CC1` [Fluphenazine dihydrochloride] was tested, and the Z-score was 0.4317.
`CC1(C)O[C@@H]2C[C@H]3[C@@H]4C[C@H](F)C5=CC(=O)CC[C@]5(C)[C@H]4[C@@H](O)C[C@]3(C)[C@]2(C(=O)CO)O1` [Flurandrenolide] was tested, and the Z-score was −0.0402.
With `CC(C(=O)O)c1ccc(-c2ccccc2)c(F)c1` (stereo not drawn) [Flurbiprofen] the Z-score was −1.4.
`O=C1NCN(c2ccccc2)C12CCN(CCCC(c1ccc(F)cc1)c1ccc(F)cc1)CC2` [Fluspirilen, reference compound] showed a Z-score of −1.6301.
`CC(C)C(=O)Nc1ccc([N+](=O)[O-])c(C(F)(F)F)c1` [Flutamide] showed a Z-score of −0.5472.
`CCC(=O)O[C@]1(C(=O)SCF)[C@H](C)C[C@H]2[C@@H]3C[C@H](F)C4=CC(=O)C=C[C@]4(C)[C@@]3(F)[C@@H](O)C[C@@]21C` [Fluticasone propionate] gave a Z-score of −1.0154.
In the case of `CC(C)n1c(/C=C/C(O)CC(O)CC(=O)O)c(-c2ccc(F)cc2)c2ccccc21` (stereo not drawn) [Fluvastatin sodium salt], the Z-score is reported as 9.993.
Work on `COCCCC/C(=N\OCCN)c1ccc(C(F)(F)F)cc1` [Fluvoxamine maleate] yielded a Z-score of −1.2293.
In the case of `Nc1nc2ncc(CNc3ccc(C(=O)N[C@@H](CCC(=O)O)C(=O)O)cc3)nc2c(=O)[nH]1` [Folic acid], the Z-score is reported as 1.253.
In the case of `Nc1nc(=O)c2c([nH]1)NCC(CNc1ccc(C(=O)N[C@@H](CCC(=O)[O-])C(=O)[O-])cc1)N2C=O.[Ca+2]` (stereo partly drawn) [Folinic acid calcium salt], the Z-score is reported as −0.7409.
`O=C(O)c1ccccc1OP(=O)(O)O` [Fosfosal] showed a Z-score of −1.2351.
`O=C1OC(CN2CCOCC2)CN1/N=C/c1ccc([N+](=O)[O-])o1` (stereo not drawn) [Furaltadone hydrochloride] was tested, and the Z-score was −0.4516.
`NS(=O)(=O)c1cc(C(=O)O)c(NCc2ccco2)cc1Cl` [Furosemide] showed a Z-score of 0.5074.
Compound `CCCCc1ccc(C(=O)O)nc1` [Fusaric acid] has a Z-score of −0.977.
In the case of `CC(=O)O[C@H]1C[C@@]2(C)[C@@H](C[C@@H](O)[C@H]3[C@@]4(C)CC[C@@H](O)[C@@H](C)[C@@H]4CC[C@@]32C)/C1=C(\CCC=C(C)C)C(=O)O` [Fusidic acid sodium salt], the Z-score is reported as 0.9973.
With `Fc1ccc(C(OCCN2CCN(CCCc3ccccc3)CC2)c2ccc(F)cc2)cc1` [GBR 12909 dihydrochloride] the Z-score was −1.0102.
For `NCC1(CC(=O)O)CCCCC1` [Gabapentin], the Z-score was −0.2478.
`COc1ccc(-c2ccc(=N)n(CCCC(=O)O)n2)cc1` [Gabazine] showed a Z-score of −0.1416.
`CCOC(=O)c1ccc(OC(=O)CCCCCN=C(N)N)cc1.CS(=O)(=O)O` [Gabexate mesilate] showed a Z-score of −1.4041.
In the case of `COc1ccc2c3c1O[C@H]1C[C@@H](O)C=C[C@@]31CCN(C)C2` [Galanthamine hydrobromide], the Z-score is reported as −0.7931.
For `CC[N+](CC)(CC)CCOc1cccc(OCC[N+](CC)(CC)CC)c1OCC[N+](CC)(CC)CC` [Gallamine triethiodide], the Z-score was 0.8644.
`Nc1nc(O)c2ncn(COC(CO)CO)c2n1` [Ganciclovir] showed a Z-score of −0.9945.
`C=C[C@]12CN(C)[C@@H]3[C@H]4CO[C@H](C[C@H]41)[C@]1(C(=O)Nc4ccccc41)[C@@H]32` [Gelsemine] showed a Z-score of −0.4693.
`Cc1ccc(C)c(OCCCC(C)(C)C(=O)O)c1` [Gemfibrozil] was tested, and the Z-score was −0.2634.
With `C=C1C[C@]23C[C@@]1(O)CC[C@H]2[C@@]12C=C[C@H](O)[C@@](C)(C(=O)O1)[C@H]2[C@@H]3C(=O)O` [Gibberellic acid] the Z-score was 0.8089.
`C[C@@H]1C(=O)O[C@H]2C[C@@]34[C@H]5C[C@@H](C(C)(C)C)[C@]36[C@@H](OC(=O)[C@@H]6O)O[C@@]4(C(=O)O5)[C@]21O` [Ginkgolide A] was tested, and the Z-score was −0.1024.
With `O=C(OCC(O)CO)c1ccccc1Nc1ccnc2cc(Cl)ccc12` (stereo not drawn) [Glafenine hydrochloride] the Z-score was −0.4014.
`COc1ccc(Cl)cc1C(=O)NCCc1ccc(S(=O)(=O)NC(=O)NC2CCCCC2)cc1` [Glibenclamide] was tested, and the Z-score was 0.3112.
Work on `Cc1ccc(S(=O)(=O)NC(=O)NN2CC3CCCC3C2)cc1` (stereo not drawn) [Gliclazide] yielded a Z-score of 0.2404.
With `CCC1=C(C)CN(C(=O)NCCc2ccc(S(=O)(=O)NC(=O)N[C@H]3CC[C@H](C)CC3)cc2)C1=O` [Glimepiride] the Z-score was 0.1043.
In the case of `Cc1cnc(C(=O)NCCc2ccc(S(=O)(=O)NC(=O)NC3CCCCC3)cc2)cn1` [Glipizide], the Z-score is reported as −0.2981.
`COc1ccc2c(c1)C(=O)N(CCc1ccc(S(=O)(=O)NC(=O)NC3CCCCC3)cc1)C(=O)C2(C)C` [Gliquidone] was tested, and the Z-score was −0.9495.
`CCC1(c2ccc(N)cc2)CCC(=O)NC1=O` (stereo not drawn) [Glutethimide, para-amino] gave a Z-score of 0.2858.
Work on `C[C@H](CCC(=O)NCC(=O)O)[C@H]1CC[C@H]2[C@@H]3[C@H](O)C[C@@H]4C[C@H](O)CC[C@]4(C)[C@H]3C[C@H](O)[C@]12C` [Glycocholic acid] yielded a Z-score of −0.6342.
Work on `C[N+]1(C)CCC(OC(=O)C(O)(c2ccccc2)C2CCCC2)C1` (stereo not drawn) [Glycopyrrolate] yielded a Z-score of −0.6161.
`Cc1cc2c(C(C)C)c(O)c(O)c(C=O)c2c(O)c1-c1c(C)cc2c(C(C)C)c(O)c(O)c(C=O)c2c1O` [Gossypol] showed a Z-score of −2.0704.
Compound `CN(C)Cc1c[nH]c2ccccc12` [Gramine] has a Z-score of 1.618.
`Cn1c(-c2ccc3c(c2)OCO3)cc(=O)c2ccccc21` [Graveoline] showed a Z-score of −1.0242.
Compound `COC1=CC(=O)C[C@@H](C)[C@]12Oc1c(Cl)c(OC)cc(OC)c1C2=O` [Griseofulvin] has a Z-score of 0.2728.
`COc1ccccc1OCC(O)CO` (stereo not drawn) [Guaifenesin] was tested, and the Z-score was 0.144.
`N=C(N)N/N=C/c1c(Cl)cccc1Cl` [Guanabenz acetate] was tested, and the Z-score was −0.3551.
Work on `N=C(N)NC(=O)Cc1c(Cl)cccc1Cl` [Guanfacine hydrochloride] yielded a Z-score of −0.0783.
